In ChEMBL document CHEMBL3507680, “University of Dundee, Gates Library screen for HepG2 cell viability”:

Assay: Human HepG2 cell viability assay in 384 well format
Type: toxicity, cell-based
Parameters: dose 125 nL, time 70.5 hour; concentration not given beside the values
Settings: HepG2 cells, read-out: Inhibition

Structure (SMILES) | cytotoxicity at 70.5 h
COc1cccc(OCCNCc2ccccc2)c1 | -7.2%
CS(=O)(=O)N[C@H]1CN(C(=O)CCc2ccco2)C[C@@H]1C1CC1 | 19.3%
CC1(c2ccccc2)CCCN(Cc2nnc(-c3cccnc3)o2)C1 (stereo not given) | -3.27%
Cc1cccc(C(C(=O)NCCCc2ccccn2)N(C)C)c1 (stereo not given) | 21.2%
O=C(CCCn1cncn1)N1CCC2(CCCN(C3CCCC3)C2=O)C1 (stereo not given) | -4.98%
CSc1nccc(N2CCC(NCc3ccc4nsnc4c3)CC2)n1 | 23.1%
CC(=O)Nc1ccc2nc(CN(C)Cc3snnc3C)ccc2c1 | -9.42%
Cc1cccc(C(=O)N2CCN(S(C)(=O)=O)[C@@H]3CS(=O)(=O)C[C@@H]32)n1 | -7.33%
CCC(NC(=O)c1cnc(-c2cccnc2)nc1)c1ccnn1C (stereo not given) | 32.1%
CSc1ccccc1C(=O)N1CCOC(CCN(C)C)C1 (stereo not given) | -15.3%
Nc1nc(N2CCCC(COc3ccc(F)cc3)C2)c2nc[nH]c2n1 (stereo not given) | -7.35%
CC(C)C[C@H](NCc1cc(O)c2cccc(F)c2n1)C(N)=O | -11.8%
Cn1cccc1-c1cc(C(=O)N2CCCC2C(F)(F)F)[nH]n1 (stereo not given) | -5.87%
COCc1noc(Cn2c(C)cc(C(F)(F)F)cc2=O)n1 | -10.7%
CCNC(=O)c1ccnc(CC2COc3c(cccc3OC)C2)c1 (stereo not given) | -38.4%
Cc1ccc(C(C(=O)O)N2CCCN(Cc3ccccn3)CC2)c(F)c1 (stereo not given) | -4.69%
CN1CCCC2(CCN(S(=O)(=O)c3ccc(-c4cnco4)s3)C2)C1=O (stereo not given) | -7.66%
O=C(NCCN1CCOCC1)c1cc(COc2ccccc2F)[nH]n1 | 0.766%
COc1ccc(CCN(C)C(=O)CN2C(=O)OC[C@@H]2C(C)C)cc1OC | -4.47%
Cc1cccc(-c2ncc(CNC(C)Cc3ccncc3)cn2)c1 (stereo not given) | -3.63%
CCn1nc(CC(C)C)cc1C(=O)N1CCC(n2cnnc2)CC1 | 8.59%
CC(C)[C@@H]1CN(Cc2cnc(C3CCCCC3)nc2)C[C@H]1C(=O)O | 8.1%
Cc1cc(N(C)Cc2snnc2C)nc(-c2cccnc2)n1 | -12.5%
Cc1ccc2nc(-c3nc4c([nH]3)CC(C)(C)CNC4=O)cn2c1 | 7.51%
CCn1cc(CN2C[C@H]3CC[C@@H]2CN(C(=O)c2ccncc2)C3)cn1 | 21%
CC(C)[C@H]1CN(C(=O)CC2CCC2)C[C@@H]1N(C)C | 18.9%
CCN1CCN(C[C@H]2CC[C@@H](Cc3ccc4c(c3)OCO4)O2)CC1 | -5.47%

Structure (SMILES) | cytotoxicity at 70.5 h
Cn1cncc1C(=O)N1CCCC(c2ccn[nH]2)C1 (stereo not given) | -16.9%
CCCn1ncc(C2CC(=O)NCc3nc4sc(C)cn4c32)c1C (stereo not given) | -3.1%
COc1cccc2c(=O)n(Cc3cccnc3)cnc12 | -6.26%
Cc1cc(C)c2nc(CN3C[C@H](CCO)[C@@H](N)C3)cc(O)c2c1 | -4.09%
CC(=O)N1CCN(C(=O)Nc2ccc(Cl)cc2)[C@H]2CS(=O)(=O)C[C@H]21 | -2.86%
Cc1cc(N2CCOC(CN)C2)nc(-c2ccccc2)n1 (stereo not given) | -10.8%
CC(=O)N[C@@H]1CN(Cc2nccn2C)C[C@H]1c1ccc(C)cc1 | 22.6%
Cc1ccc2c(c1)c(CNC(=O)C1CCCN(CC(N)=O)C1)nn2C (stereo not given) | -10.2%
C[C@@H]1CN(c2cccnn2)CC[C@@]1(O)C1CCOCC1 | -4.49%
Cc1cc(C)n(CC(=O)N2CCCCC2CCN2CCCC2=O)c(=O)n1 (stereo not given) | -12.3%
CCNC(=O)N1CCC(Nc2nccc(NCC)n2)CC1 | -11.4%
Cc1c(C(C)N)cnn1-c1cccc2ccccc12 (stereo not given) | -5.48%
CCc1cc(NC2CCN(CC(N)=O)CC2)nc(N2CCCCC2)n1 | -2.44%
CC(C)N1CCC(C(=O)N2CCC(c3ccc(F)cc3)C2)CC1 (stereo not given) | -20.4%
CN(C)C(=O)N1CCCn2nc(CNC(=O)CCc3ccsc3)cc2C1 | -9.25%
CCOC(=O)CC1CCCCN1C(=O)CCc1cc(Cl)no1 (stereo not given) | -1.88%
N#Cc1c(N)nc2c(c1C1CCOC1)CCc1cc(O)ccc1-2 (stereo not given) | -11.5%
Cc1nc(O)cc(C2CCCN(C(=O)CN(C)c3ccccc3)C2)n1 (stereo not given) | 1.65%
COc1ccccc1OC1(C(=O)O)CCN(c2cnccn2)CC1 | 47.4%
Cc1nn(C)cc1-c1ccnc(N(C)Cc2ccoc2)n1 | -3.89%
CCOC(=O)N1CCN(C(=O)C(C)n2ccnc2C(C)C)CC1 (stereo not given) | 8.16%
Cc1cc(C)c(-c2nc(-c3c(C)ncc4c3CCNC4)no2)o1 | -11.5%
CCc1cc(N2CCNCC2)n2nc(C)c(C)c2n1 | -3.36%
COc1ccc(CN2C[C@@H](CN(C)C)[C@@H](CO)C2)cc1OC | -3.1%
CS(=O)(=O)N1CCC(Oc2ccc(C(=O)NC3CCOC3)cc2Cl)CC1 (stereo not given) | -7.64%
COc1cccc(OCC(=O)NCc2ccc3[nH]c(=O)[nH]c3c2)c1 | -13.7%
NC1CCCN(C(=O)c2csc(-c3ccc(C(F)(F)F)cc3)n2)CC1 (stereo not given) | 36.2%

Structure (SMILES) | cytotoxicity at 70.5 h
Cc1ccc(NCCCc2c(C)noc2C)nn1 | -6.84%
CN(C)C(=O)c1noc2c1CN(C(=O)CCC1CCCCN1C)CC2 (stereo not given) | -4.32%
COCCN(Cc1ccc(OC)nc1)Cc1cccs1 | 29.6%
CCC(C)N(Cc1ccncc1)C(=O)CCC(=O)OC (stereo not given) | 4.04%
COc1ccc(-c2cc[nH]n2)cc1CNC1CCCC1 | -7.14%
O=C(CCn1cncn1)N1CC[C@@H](c2ccc3ccccc3c2)[C@H](O)C1 | -10.5%
Cc1nc[nH]c1-c1nccn1-c1ccc(C(N)=O)c(N2CCCC2)c1 | 20.6%
Cc1nnc(CNCC2(O)CCCN(Cc3ccc(F)c(F)c3)C2=O)[nH]1 (stereo not given) | -0.578%
Cc1ccccc1C(C(=O)NCCSC(F)(F)F)N(C)C (stereo not given) | -11.1%
Cc1ccnc(CC(C)N(C)c2cc(CCN)nc(C)n2)c1 (stereo not given) | -6.01%
O=C(CCc1nc(Cl)n[nH]1)NC1CCCN(CC2CCCCC2)C1 (stereo not given) | 0.564%
CCN(Cc1cc(Cl)ccc1OC)Cc1cc(C)nn1C | 2.1%
O=C(O)CC1COCCN1Cc1ccccc1OCCc1ccccc1 (stereo not given) | -3.62%
CC(=O)N1CCCCC1c1ncnn1-c1ccc2nc(C)sc2c1 (stereo not given) | -4.05%
Cc1nc(CC(=O)N(CCN2CCOCC2)Cc2ccco2)c(C)s1 | -4.1%
CCOc1ncccc1C(=O)N1CCN(C)C2(CCN(C)CC2)C1 | 4.53%
N[C@H]1CN(S(=O)(=O)N2CCCC2)C[C@@H]1c1ccccc1 | -4.68%
CCc1ccc2nc(C)cc(C(=O)N[C@@H]3CCCNC3)c2c1 | 2.34%
Cc1nc(O)cc(CCNC(=O)C2CC(=O)N(CC(C)C)C2)n1 (stereo not given) | -8.39%
Cc1cccc2[nH]c(C3CCN(C(=O)c4cnc(O)cc4O)CC3)nc12 | 22.7%
COc1ccc([C@@H]2CN(Cc3cccnc3N)C[C@H]2NC(C)=O)cc1 | -8.12%
CCOCC(=O)N1CCC(c2nccn2CC2CC2)CC1 | 1.15%
Cc1nc2c(c(=O)n1C)CCN(C(=O)CCc1ccccn1)CC2 | -5.46%
COc1cccc(N2CCN(C(=O)CCO)CC2=O)c1 | -8.46%
CN1Cc2ccccc2CC1C(=O)N1CCN(CCS(C)(=O)=O)CC1 (stereo not given) | 5.5%
Cc1cc(=O)[nH]c(SC(C)C(=O)N2CCC(NS(C)(=O)=O)CC2)n1 (stereo not given) | 2.17%
